Blank lines part the entries; values can stand above or below the compound they belong to. Calls of active or inactive are those of the source.
What was measured:
[1] = molecular target: T1, Short transient receptor potential channel 4 (Mus musculus, UniProt Q9QUQ5); assay: calcium entry via TRPC4 opening agents – cell-based, HEK293 TRPC4/mu-opioid, Fluo-4 calcium, dose response (AID 434937); assay type: functional
T1 sequence (Q9QUQ5 whole entry): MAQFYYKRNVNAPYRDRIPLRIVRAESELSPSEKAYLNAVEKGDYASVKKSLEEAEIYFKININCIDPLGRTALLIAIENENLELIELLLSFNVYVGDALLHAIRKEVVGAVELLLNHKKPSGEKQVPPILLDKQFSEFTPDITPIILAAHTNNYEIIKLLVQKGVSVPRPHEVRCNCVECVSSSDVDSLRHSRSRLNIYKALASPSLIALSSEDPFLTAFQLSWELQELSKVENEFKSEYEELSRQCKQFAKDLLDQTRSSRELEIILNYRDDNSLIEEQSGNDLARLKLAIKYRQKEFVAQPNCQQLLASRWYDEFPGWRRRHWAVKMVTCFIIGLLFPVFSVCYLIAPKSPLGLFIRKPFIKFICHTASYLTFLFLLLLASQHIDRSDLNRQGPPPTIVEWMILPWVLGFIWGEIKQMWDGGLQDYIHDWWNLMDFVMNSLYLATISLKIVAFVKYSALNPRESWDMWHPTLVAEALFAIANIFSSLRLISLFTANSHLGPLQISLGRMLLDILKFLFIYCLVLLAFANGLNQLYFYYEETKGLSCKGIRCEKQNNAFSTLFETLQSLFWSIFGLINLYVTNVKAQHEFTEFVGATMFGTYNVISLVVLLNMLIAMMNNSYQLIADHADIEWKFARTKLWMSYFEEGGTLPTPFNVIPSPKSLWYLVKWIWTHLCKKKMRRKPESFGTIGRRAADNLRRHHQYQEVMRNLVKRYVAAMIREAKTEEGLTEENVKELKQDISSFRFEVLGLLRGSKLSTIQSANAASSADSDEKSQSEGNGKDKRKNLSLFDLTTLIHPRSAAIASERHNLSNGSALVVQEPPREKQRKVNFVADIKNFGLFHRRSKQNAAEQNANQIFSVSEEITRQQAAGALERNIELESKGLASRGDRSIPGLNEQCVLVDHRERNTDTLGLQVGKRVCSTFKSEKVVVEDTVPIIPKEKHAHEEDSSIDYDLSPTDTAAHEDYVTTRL

[2] = molecular target: T1, Short transient receptor potential channel 4; assay: block of DAMGO-driven TRPC4 calcium entry – cell-based, HEK293 TRPC4/mu-opioid, Fluo-4 calcium, dose response (AID 434942); assay type: functional;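 further: potency of inhibitors blocking the TRPC4 calcium response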
[3] = molecular target: Glucose-6-phosphate 1-dehydrogenase (Homo sapiens, UniProt P11413); assay: inhibition of Homo sapiens G6PD, dose series – biochemical, fluorescence, selectivity assay for P. falciparum G6PD inhibitor project, dose response (AID 504792); assay type: functional
Bcl-2-like protein 10 = molecular target: T2, Bcl-2-like protein 10 (Homo sapiens, UniProt Q9HD36); assay: Bcl-B/TR3 peptide binding disruption – biochemical, fluorescence polarization, FITC-TR3 peptide, selectivity assay for Bfl-1 inhibitor project, primary screen (AID 748);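 further: fluorescence polarization from a fluorescein-labelled TR3 peptide binding purified Bcl-B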
T2 sequence (Q9HD36 whole entry): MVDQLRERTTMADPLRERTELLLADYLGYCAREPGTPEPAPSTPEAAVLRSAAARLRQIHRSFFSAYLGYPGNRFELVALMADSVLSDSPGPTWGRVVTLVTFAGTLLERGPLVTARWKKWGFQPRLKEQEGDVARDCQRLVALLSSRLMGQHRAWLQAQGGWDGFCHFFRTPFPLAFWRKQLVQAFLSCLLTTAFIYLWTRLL

[4] = fluconazole-exposed Candida albicans growth modulators – fluorescence, retest, confirmation (AID 2467); assay type: functional, cell-based
[5] = NIH-3T3 fibroblast cytotoxicity, dose response, cytotoxicity control, cell-based, fluorescence, Alamar Blue, secondary assay (AID 2327); assay type: functional;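 further: NIH-3T3 mouse fibroblasts cultured with fluconazole at 8 µg/mL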
[6] = molecular target: T3, Histone-lysine N-methyltransferase NSD2 (Homo sapiens, UniProt O96028); assay type: biochemical
T3 sequence (O96028 whole entry): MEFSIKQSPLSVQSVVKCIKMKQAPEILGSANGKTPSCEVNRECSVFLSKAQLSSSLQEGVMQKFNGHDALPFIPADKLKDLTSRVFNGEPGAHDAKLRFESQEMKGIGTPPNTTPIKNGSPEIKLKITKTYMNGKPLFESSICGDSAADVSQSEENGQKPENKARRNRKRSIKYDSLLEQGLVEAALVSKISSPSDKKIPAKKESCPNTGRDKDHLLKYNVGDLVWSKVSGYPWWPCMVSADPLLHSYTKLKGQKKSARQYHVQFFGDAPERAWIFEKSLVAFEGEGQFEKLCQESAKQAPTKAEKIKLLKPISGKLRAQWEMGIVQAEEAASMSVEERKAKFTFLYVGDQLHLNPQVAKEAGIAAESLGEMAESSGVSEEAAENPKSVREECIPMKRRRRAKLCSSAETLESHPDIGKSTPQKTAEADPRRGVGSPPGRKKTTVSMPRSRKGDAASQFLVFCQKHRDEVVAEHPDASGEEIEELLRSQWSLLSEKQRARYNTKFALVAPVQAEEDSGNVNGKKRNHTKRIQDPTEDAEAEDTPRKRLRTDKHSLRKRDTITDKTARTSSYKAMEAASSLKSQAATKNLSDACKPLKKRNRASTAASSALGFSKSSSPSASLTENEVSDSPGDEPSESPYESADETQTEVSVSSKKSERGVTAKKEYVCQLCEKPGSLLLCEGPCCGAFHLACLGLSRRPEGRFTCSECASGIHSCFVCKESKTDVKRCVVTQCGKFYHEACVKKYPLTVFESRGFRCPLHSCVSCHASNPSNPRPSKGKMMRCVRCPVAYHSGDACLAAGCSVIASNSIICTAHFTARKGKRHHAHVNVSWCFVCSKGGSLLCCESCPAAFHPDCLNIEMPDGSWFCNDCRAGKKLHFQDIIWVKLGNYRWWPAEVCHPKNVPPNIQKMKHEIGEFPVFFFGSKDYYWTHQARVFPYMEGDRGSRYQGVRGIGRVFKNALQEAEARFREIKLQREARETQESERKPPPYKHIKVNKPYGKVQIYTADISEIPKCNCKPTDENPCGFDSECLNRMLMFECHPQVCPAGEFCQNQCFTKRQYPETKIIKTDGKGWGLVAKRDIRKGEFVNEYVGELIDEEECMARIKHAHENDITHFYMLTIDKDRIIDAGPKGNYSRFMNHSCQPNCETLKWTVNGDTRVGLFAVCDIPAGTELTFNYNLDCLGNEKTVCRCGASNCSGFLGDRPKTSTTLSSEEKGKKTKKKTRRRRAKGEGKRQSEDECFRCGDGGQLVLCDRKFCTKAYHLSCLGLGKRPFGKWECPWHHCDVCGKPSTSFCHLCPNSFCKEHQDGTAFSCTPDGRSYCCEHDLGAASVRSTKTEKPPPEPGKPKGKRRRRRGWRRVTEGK

Cytochrome P450 2C19 = Cytochrome P450 2C19 (Homo sapiens, UniProt P33261); assay: Cytochrome panel assay with activity outcomes. Panel member name: p450-cyp2c19 Compounds with AC50 equal or less than 10 uM are considered active; assay type: functional; conditions: read-out: AC50
Cytochrome P450 2C9 = Cytochrome P450 2C9 (Homo sapiens, UniProt P11712)
Cytochrome P450 3A4 = Cytochrome P450 3A4 (Homo sapiens, UniProt P08684);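 further: CYP3A4 tested as one member of a cytochrome P450 panel screen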
INS1 = assay: INS-1E survival protection against cytokine death – cell-based, luminescence, retest, dose response (AID 449756); assay type: functional; conditions: Rattus norvegicus;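 further: cell death triggered by IL-1 beta plus TNF-alpha plus IFN-gamma mixture; protective hits raise ATP signal compared with cytokine alone wells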
cells [7] = assay type: functional, cell-based
cells [8] = assay type: functional, cell-based; remark: listed apart in the source
Aminopeptidase N = molecular target: T4, Aminopeptidase N (Plasmodium falciparum FcB1/Columbia, UniProt O96935); assay: malaria alanyl aminopeptidase activity blockers – biochemical, fluorogenic H-Leu-NHMec substrate, 1536-well (AID 1445); design: species or system Plasmodium falciparum 3D7, 3D7
T4 sequence (O96935 whole entry): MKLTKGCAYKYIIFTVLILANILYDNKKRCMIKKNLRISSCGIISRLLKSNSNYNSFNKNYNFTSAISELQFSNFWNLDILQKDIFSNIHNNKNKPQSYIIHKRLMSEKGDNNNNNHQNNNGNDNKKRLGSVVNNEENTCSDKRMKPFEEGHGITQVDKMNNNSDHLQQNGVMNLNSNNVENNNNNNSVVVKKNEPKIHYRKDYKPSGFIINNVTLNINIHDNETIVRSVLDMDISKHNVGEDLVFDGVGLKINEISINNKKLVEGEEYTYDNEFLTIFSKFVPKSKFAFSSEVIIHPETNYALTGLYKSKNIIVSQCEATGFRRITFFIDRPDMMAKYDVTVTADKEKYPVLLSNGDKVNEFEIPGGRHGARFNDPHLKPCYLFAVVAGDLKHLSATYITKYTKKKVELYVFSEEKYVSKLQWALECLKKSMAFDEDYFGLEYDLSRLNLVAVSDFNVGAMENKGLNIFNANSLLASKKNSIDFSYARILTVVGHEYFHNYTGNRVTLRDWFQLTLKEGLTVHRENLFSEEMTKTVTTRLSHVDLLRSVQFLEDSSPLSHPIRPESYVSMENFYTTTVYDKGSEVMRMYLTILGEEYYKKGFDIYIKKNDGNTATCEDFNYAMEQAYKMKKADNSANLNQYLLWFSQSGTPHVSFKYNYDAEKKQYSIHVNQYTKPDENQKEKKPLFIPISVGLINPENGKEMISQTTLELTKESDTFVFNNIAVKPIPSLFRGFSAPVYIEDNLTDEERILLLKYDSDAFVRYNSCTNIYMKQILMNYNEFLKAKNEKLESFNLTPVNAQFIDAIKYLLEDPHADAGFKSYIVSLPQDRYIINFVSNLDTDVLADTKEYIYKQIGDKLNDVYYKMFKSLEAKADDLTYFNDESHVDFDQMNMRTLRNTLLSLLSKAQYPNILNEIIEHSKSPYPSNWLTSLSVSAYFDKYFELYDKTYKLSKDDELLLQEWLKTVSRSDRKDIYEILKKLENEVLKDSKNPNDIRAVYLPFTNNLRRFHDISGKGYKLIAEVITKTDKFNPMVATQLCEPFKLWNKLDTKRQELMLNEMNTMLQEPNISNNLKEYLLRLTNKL

Cytochrome P450 1A2 = molecular target: T5, Cytochrome P450 1A2 (Homo sapiens, UniProt P05177);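 further: PubChem cytochrome P450 panel assay, CYP1A2 panel member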
T5 sequence (P05177 whole entry): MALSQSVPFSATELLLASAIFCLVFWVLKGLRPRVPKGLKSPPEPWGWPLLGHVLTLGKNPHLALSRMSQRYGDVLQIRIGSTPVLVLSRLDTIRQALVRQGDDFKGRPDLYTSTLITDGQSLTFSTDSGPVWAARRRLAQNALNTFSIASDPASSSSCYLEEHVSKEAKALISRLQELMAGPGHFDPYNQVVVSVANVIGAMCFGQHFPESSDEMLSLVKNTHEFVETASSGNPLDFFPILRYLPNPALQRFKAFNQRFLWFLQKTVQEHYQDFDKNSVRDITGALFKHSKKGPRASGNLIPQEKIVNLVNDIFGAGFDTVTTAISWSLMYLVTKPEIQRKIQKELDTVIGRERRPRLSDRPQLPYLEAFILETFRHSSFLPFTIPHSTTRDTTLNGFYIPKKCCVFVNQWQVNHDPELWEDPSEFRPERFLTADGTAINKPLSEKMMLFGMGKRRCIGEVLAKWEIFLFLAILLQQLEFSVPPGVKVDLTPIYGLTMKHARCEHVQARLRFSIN

Sequence of Glucose-6-phosphate 1-dehydrogenase (P11413 whole entry): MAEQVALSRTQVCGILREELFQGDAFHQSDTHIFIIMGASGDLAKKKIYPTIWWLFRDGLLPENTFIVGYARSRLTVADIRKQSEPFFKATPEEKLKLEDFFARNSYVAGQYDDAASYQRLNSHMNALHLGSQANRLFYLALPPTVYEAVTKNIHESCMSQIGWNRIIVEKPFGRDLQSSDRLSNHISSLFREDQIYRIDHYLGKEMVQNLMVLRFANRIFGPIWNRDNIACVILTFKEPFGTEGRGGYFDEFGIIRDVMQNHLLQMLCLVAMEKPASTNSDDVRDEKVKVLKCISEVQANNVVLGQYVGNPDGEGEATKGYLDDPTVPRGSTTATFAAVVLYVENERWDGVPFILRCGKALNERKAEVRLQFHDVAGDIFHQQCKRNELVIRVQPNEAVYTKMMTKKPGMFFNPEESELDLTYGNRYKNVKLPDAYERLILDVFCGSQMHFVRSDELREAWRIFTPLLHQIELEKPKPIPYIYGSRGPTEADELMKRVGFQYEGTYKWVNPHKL
Sequence of Cytochrome P450 2C9 (P11712 whole entry): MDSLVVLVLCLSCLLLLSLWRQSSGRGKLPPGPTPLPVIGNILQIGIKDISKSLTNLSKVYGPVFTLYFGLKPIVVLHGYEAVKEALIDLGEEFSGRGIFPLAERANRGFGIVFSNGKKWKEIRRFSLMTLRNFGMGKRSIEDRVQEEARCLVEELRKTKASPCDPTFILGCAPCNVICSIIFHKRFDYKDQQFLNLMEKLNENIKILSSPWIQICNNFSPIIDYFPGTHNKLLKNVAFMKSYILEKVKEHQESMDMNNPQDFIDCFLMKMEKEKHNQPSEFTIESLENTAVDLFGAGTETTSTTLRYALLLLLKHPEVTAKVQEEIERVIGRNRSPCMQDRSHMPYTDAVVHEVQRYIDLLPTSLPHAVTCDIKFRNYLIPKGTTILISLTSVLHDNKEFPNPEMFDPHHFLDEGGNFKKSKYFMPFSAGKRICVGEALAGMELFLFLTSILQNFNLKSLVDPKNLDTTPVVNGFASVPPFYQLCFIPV
Sequence of Cytochrome P450 2C19 (P33261 whole entry): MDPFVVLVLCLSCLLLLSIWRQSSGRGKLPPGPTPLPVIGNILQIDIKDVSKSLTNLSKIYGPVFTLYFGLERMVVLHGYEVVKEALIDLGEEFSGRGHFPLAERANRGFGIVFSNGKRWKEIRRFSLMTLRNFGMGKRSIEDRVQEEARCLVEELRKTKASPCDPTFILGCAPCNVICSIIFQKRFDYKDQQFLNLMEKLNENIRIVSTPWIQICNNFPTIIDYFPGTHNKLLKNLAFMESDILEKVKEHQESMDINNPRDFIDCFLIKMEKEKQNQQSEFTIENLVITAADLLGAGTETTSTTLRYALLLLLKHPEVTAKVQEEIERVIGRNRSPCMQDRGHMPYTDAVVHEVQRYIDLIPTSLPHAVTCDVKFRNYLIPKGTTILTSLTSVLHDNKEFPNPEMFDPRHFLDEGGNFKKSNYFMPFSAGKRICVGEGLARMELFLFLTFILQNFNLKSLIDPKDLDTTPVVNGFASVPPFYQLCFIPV
Sequence of Cytochrome P450 3A4 (P08684 whole entry): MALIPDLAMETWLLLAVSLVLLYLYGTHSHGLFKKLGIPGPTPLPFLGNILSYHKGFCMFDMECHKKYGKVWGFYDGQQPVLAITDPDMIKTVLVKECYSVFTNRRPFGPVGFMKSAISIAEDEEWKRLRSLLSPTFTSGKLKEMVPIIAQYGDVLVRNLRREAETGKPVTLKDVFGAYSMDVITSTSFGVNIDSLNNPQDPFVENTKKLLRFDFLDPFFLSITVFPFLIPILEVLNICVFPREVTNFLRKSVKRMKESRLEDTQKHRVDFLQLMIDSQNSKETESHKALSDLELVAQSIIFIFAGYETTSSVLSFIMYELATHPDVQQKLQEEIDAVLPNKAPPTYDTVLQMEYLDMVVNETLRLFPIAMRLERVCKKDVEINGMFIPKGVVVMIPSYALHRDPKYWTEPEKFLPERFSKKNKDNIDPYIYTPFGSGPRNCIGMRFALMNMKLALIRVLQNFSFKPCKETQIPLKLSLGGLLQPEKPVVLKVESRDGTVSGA

SMILES: Cc1ccc(S(=O)(=O)NC2=NC(=O)/C(=C\c3cc(Br)cc(Br)c3O)S2)cc1
- EC50 [4]: > 38 µM (not active)
- EC50 [5]: 9.99 µM (active)
- EC50 [1]: 10.6 µM (active)
- AC50 [6]: 6.67 µM (active)

SMILES: Cc1cccc(OCCOCCN2CCNCC2)c1C
- EC50 [1]: 1.19 µM (active)

SMILES: C[C@H]1CC[C@H]2C(=O)N[C@H](Cc3ccccc3)C(=O)N2[C@@H]1c1ccccc1
- AC50 (Cytochrome P450 2C19): 3.98 µM (inconclusive)
- AC50 (Cytochrome P450 2C9): inconclusive

SMILES: Cn1c(=O)c2cc(S(=O)(=O)NCCC(=O)Nc3ccc(Cl)cc3)ccc2n(C)c1=O
- AC50 (Cytochrome P450 2C9): inconclusive

SMILES: Cc1cc(NC(=O)c2cnn3cccnc23)nn1CC(=O)Nc1cccnc1
- EC50 [1]: 4.22 µM (active)

SMILES: O=C(N/N=C/c1cc(Cl)ccc1O)c1ccccc1Br
- AC50 (INS1): 2.29 µM (active)
- EC50 (cells [7]): > 350 µM (not active)
- EC50 (cells [8]): 14.7 µM (active)
- IC50 (Aminopeptidase N): 30.8 µM (active)

SMILES: O=C(CSc1nc2cc(Cl)ccc2s1)c1ccco1
- IC50 [3]: > 80 µM (inactive)

SMILES: O=C(Nc1ccccc1C(=O)N/N=C/c1ccco1)c1ccccc1Cl
- IC50 [3]: > 80 µM (inactive)

Now from value to compound:

- EC50 [1]: 2.66 µM (active)
- EC50 [2]: 0.841 µM (active)
SMILES: CCOC(=O)C1(CC2CC2)CCN(Cc2ccc3cccc(F)c3n2)CC1

- IC50 [3]: > 80 µM (inactive)
SMILES: Cc1ccc(C(=O)Nc2nnc(S(=O)(=O)N3CCC(C)CC3)s2)cc1

- IC50 (Bcl-2-like protein 10): 77 µM (inactive)
SMILES: O=C(O)CCc1ccc(-c2cccs2)n1CCC(=O)O

- AC50 (Cytochrome P450 2C9): inconclusive
SMILES: O=C(Nc1ccccc1)N1CC2(CCN(C(=O)c3cc(C(F)(F)F)cc(C(F)(F)F)c3)CC2)C1

- IC50 (Bcl-2-like protein 10): 62.8 µM (inactive)
SMILES: O=C(NCCCN1CCN(Cc2ccccc2)CC1)C1CCN(c2nnc(-n3cccc3)s2)CC1

- IC50 (Bcl-2-like protein 10): > 100 µM (inactive)
SMILES: COc1ccc(S(=O)(=O)N2CCCC2C(=O)Nc2nnc(-c3cccnc3)s2)cc1 (stereo not given)

- AC50 (Cytochrome P450 3A4): 22.4 µM (inconclusive)
- AC50 (Cytochrome P450 2C9): inconclusive
SMILES: Oc1ccc2oc3c(c2c1)CCCC3

- IC50 (Bcl-2-like protein 10): 76.3 µM (inactive)
SMILES: FC(F)(F)c1cnc(Nc2ccc(N3CCOCC3)cc2)c(Cl)c1

- AC50 (Cytochrome P450 2C19): 3.98 µM (inconclusive)
- AC50 (Cytochrome P450 1A2): 17.8 µM (inconclusive)
- AC50 (Cytochrome P450 2C9): inconclusive
SMILES: O=C(N/C(=C/c1ccco1)C(=O)N1CCCCCC1)c1cccs1

- EC50 [1]: 5.31 µM (active)
SMILES: OCCC1CN(Cc2ccccc2-c2ccco2)CCN1Cc1ccccc1 (stereo not given)

- IC50 (Aminopeptidase N): 12.2 µM (active)
SMILES: COc1cc(/C=N/NC(=O)[C@H](Cc2c[nH]c3ccccc23)NC(=O)OCC(C)C)cc([N+](=O)[O-])c1O

Reference: ChEMBL document CHEMBL1201862, “PubChem BioAssay data set” (2004)
